Measured values as given in patent US20180370927A1, “MICROBIOCIDAL OXADIAZOLE DERIVATIVES” (SYNGENTA PARTICIPATIONS AG, priority 2015, published 2018).

How the values were obtained:
[1] = tested on: Phakopsora pachyrhizi; experiment: Phakopsora pachyrhizi / soybean / leaf disc preventative (Asian soybean rust); format: in vivo; settings: foliar, 200 ppm in the applied formulation, soybean leaf disks, assessed 12 to 14 days after application, read-out: disease control compared to untreated control leaf disks
How it was run: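 Soybean leaf discs on water agar were sprayed with formulated compound diluted in water, then inoculated one day later with spore suspension on the lower leaf surface. Held 24-36 h dark at 20° C., 75% RH, then 12 h light/day; percent disease control versus untreated scored 12 to 14 days after application.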

[2] = tested on: Puccinia recondita f. Sp. Tritici; experiment: Puccinia recondita f. sp. tritici / wheat / leaf disc curative (brown rust); format: in vivo; settings: foliar, 200 ppm in the applied formulation, wheat leaf segments, curative (applied 1 day after inoculation), assessed 6 to 8 days after application, read-out: disease control compared to untreated control leaf disks
How it was run: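 Wheat cv. Kanzler leaf segments on agar were inoculated with spores, kept dark at 19° C, 75% RH, then sprayed with diluted formulated compound 1 day after inoculation (curative). Incubation continued at 19° C, 75% RH, 12 h light/12 h dark, with percent disease control versus untreated scored 6 to 8 days after application.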

[3] = tested on: Puccinia recondita f. Sp. Tritici; experiment: Puccinia recondita f. sp. tritici / wheat / leaf disc preventative (brown rust); format: in vivo; settings: foliar, 200 ppm in the applied formulation, wheat leaf segments, preventative, assessed 7 to 9 days after application, read-out: disease control compared to untreated control leaf disks
How it was run: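 Wheat cv. Kanzler leaf segments on agar sprayed with formulated compound in water, inoculated with rust spores 1 day later. Incubated at 19° C, 75% rh, 12 h light/12 h dark; percent disease control versus untreated scored 7 to 9 days after application; tested at 200 ppm.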

[4] = tested on: Glomerella lacenarium (Colletotrichum lacenarium); experiment: Glomerella lacenarium (Colletotrichum lacenarium) liquid culture / cucumber / preventative (anthracnose); format: cell-based; settings: 20 ppm in the applied formulation, liquid culture in PDB, 24° C., 3 to 4 days after application, read-out: disease control (inhibition of growth, photometric) compared to untreated control
How it was run: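 Cryostored conidia in potato dextrose broth added to DMSO compound solution in microtiter plates, incubated at 24° C. Growth inhibition read photometrically 3 to 4 days after application, as percent control versus untreated check; compounds tested at 20 ppm.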

CN(Cc1ccc(-c2noc(C(F)(F)F)n2)cc1)C(=O)C(=O)C1CC1 [Compound 1.94, 2-cyclopropyl-N-methyl-2-oxo-N-[[4-[5-(trifluoromethyl)-1,2,4-oxadiazol-3-yl]phenyl]methyl]acetamide]
≥ 80%: pest or weed control at 200 ppm [1] | pest or weed control at 200 ppm [2] | pest or weed control at 200 ppm [3] | inhibition at 20 ppm [4]

CN(C)C(=O)C(=O)NCc1ccc(-c2noc(C(F)(F)F)n2)c(F)c1F [Compound 4.94, N-[[2,3-difluoro-4-[5-(trifluoromethyl)-1,2,4-oxadiazol-3-yl]phenyl]methyl]-N',N'-dimethyl-oxamide]
≥ 80%: pest or weed control at 200 ppm [1] | pest or weed control at 200 ppm [2] | pest or weed control at 200 ppm [3] | inhibition at 20 ppm [4]

O=C(NCc1ccc(-c2noc(C(F)(F)F)n2)cc1F)C(=O)c1ccccc1 [Compound 1.37, N-[[2-fluoro-4-[5-(trifluoromethyl)-1,2,4-oxadiazol-3-yl]phenyl]methyl]-2-oxo-2-phenyl-acetamide]
≥ 80%: pest or weed control at 200 ppm [1] | pest or weed control at 200 ppm [2] | pest or weed control at 200 ppm [3] | inhibition at 20 ppm [4]

CCC(=O)C(=O)N(Cc1ccc(-c2noc(C(F)(F)F)n2)cc1)OC [Compound 1.89, N-methoxy-2-oxo-N-[[4-[5-(trifluoromethyl)-1,2,4-oxadiazol-3-yl]phenyl]methyl]butanamide]
≥ 80%: pest or weed control at 200 ppm [1] | pest or weed control at 200 ppm [2] | pest or weed control at 200 ppm [3] | inhibition at 20 ppm [4]

CC(C)CC(=O)C(=O)NCc1ccc(-c2noc(C(F)(F)F)n2)c(F)c1F [Compound 1.47, N-[[2,3-difluoro-4-[5-(trifluoromethyl)-1,2,4-oxadiazol-3-yl]phenyl]methyl]-4-methyl-2-oxo-pentanamide]
≥ 80%: pest or weed control at 200 ppm [1] | pest or weed control at 200 ppm [2] | pest or weed control at 200 ppm [3] | inhibition at 20 ppm [4]

CCCN(Cc1ccc(-c2noc(C(F)(F)F)n2)cc1)C(=O)C(N)=O [Compound 4.88, N′-propyl-N′-[[4-[5-(trifluoromethyl)-1,2,4-oxadiazol-3-yl]phenyl]methyl] oxamide]
≥ 80%: pest or weed control at 200 ppm [1] | pest or weed control at 200 ppm [2] | pest or weed control at 200 ppm [3] | inhibition at 20 ppm [4]

O=C(NCc1c(F)cc(-c2noc(C(F)(F)F)n2)cc1F)C(=O)c1ccco1 [Compound 1.88, N-[[2,6-difluoro-4-[5-(trifluoromethyl)-1,2,4-oxadiazol-3-yl]phenyl]methyl]-2-(2-furyl)-2-oxo-acetamide]
≥ 80%: pest or weed control at 200 ppm [1] | pest or weed control at 200 ppm [2] | pest or weed control at 200 ppm [3] | inhibition at 20 ppm [4]

CCC(=O)C(=O)NCc1ccc(-c2noc(C(F)(F)F)n2)c(F)c1F [Compound 1.80, N-[[2,3-difluoro-4-[5-(trifluoromethyl)-1,2,4-oxadiazol-3-yl]phenyl]methyl]-2-oxo-butanamide]
≥ 80%: pest or weed control at 200 ppm [1] | pest or weed control at 200 ppm [2] | pest or weed control at 200 ppm [3] | inhibition at 20 ppm [4]

CCC(=O)C(=O)N(Cc1ccc(-c2noc(C(F)(F)F)n2)cc1)C(C)C [Compound 1.32]
≥ 80%: pest or weed control at 200 ppm [1] | pest or weed control at 200 ppm [2] | pest or weed control at 200 ppm [3] | inhibition at 20 ppm [4]

CCC(=O)C(=O)NCc1ccc(-c2noc(C(F)(F)F)n2)cc1 [Compound 1.53, 2-oxo-N-[[4-[5-(trifluoromethyl)-1,2,4-oxadiazol-3-yl]phenyl]methyl]butanamide]
≥ 80%: pest or weed control at 200 ppm [1] | pest or weed control at 200 ppm [2] | pest or weed control at 200 ppm [3] | inhibition at 20 ppm [4]

CN(C)C(=O)C(=O)NCc1ccc(-c2noc(C(F)(F)F)n2)cc1F [Compound 4.92, N-[[2-fluoro-4-[5-(trifluoromethyl)-1,2,4-oxadiazol-3-yl]phenyl]methyl]-N',N'-dimethyl-oxamide]
≥ 80%: pest or weed control at 200 ppm [1] | pest or weed control at 200 ppm [2] | pest or weed control at 200 ppm [3] | inhibition at 20 ppm [4]

NC(=O)C(=O)N(Cc1ccc(-c2noc(C(F)(F)F)n2)cc1)C1COC1 [Compound 4.90, N′-(oxetan-3-yl)-N′-[[4-[5-(trifluoromethyl)-1,2,4-oxadiazol-3-yl]phenyl]methyl] oxamide]
≥ 80%: pest or weed control at 200 ppm [1] | pest or weed control at 200 ppm [2] | pest or weed control at 200 ppm [3] | inhibition at 20 ppm [4]

CC(C)CC(=O)C(=O)NCc1ccc(-c2noc(C(F)(F)F)n2)cc1F [Compound 1.38, N-[[2-fluoro-4-[5-(trifluoromethyl)-1,2,4-oxadiazol-3-yl]phenyl]methyl]-4-methyl-2-oxo-pentanamide]
≥ 80%: pest or weed control at 200 ppm [1] | pest or weed control at 200 ppm [2] | pest or weed control at 200 ppm [3] | inhibition at 20 ppm [4]

CC(C)(C)C(=O)C(=O)NCc1c(F)cc(-c2noc(C(F)(F)F)n2)cc1F [Compound 1.71, N-[[2,6-difluoro-4-[5-(trifluoromethyl)-1,2,4-oxadiazol-3-yl]phenyl]methyl]-3,3-dimethyl-2-oxo-butanamide]
≥ 80%: pest or weed control at 200 ppm [1] | pest or weed control at 200 ppm [2] | pest or weed control at 200 ppm [3] | inhibition at 20 ppm [4]

C=CCN(Cc1ccc(-c2noc(C(F)(F)F)n2)cc1)C(=O)C(N)=O [Compound 4.26, N′-allyl-N′-[[4-[5-(trifluoromethyl)-1,2,4-oxadiazol-3-yl]phenyl]methyl] oxamide]
≥ 80%: pest or weed control at 200 ppm [1] | pest or weed control at 200 ppm [2] | pest or weed control at 200 ppm [3] | inhibition at 20 ppm [4]

CC(C)CC(=O)C(=O)NCc1ccc(-c2noc(C(F)(F)F)n2)cc1 [Compound 1.50, 4-methyl-2-oxo-N-[[4-[5-(trifluoromethyl)-1,2,4-oxadiazol-3-yl]phenyl]methyl]pentanamide]
≥ 80%: pest or weed control at 200 ppm [1] | pest or weed control at 200 ppm [2] | pest or weed control at 200 ppm [3] | inhibition at 20 ppm [4]

NC(=O)C(=O)N(O)Cc1ccc(-c2noc(C(F)(F)F)n2)cc1 [Compound 4.91, N′-hydroxy-N′-[[4-[5-(trifluoromethyl)-1,2,4-oxadiazol-3-yl]phenyl]methyl] oxamide]
≥ 80%: pest or weed control at 200 ppm [1] | pest or weed control at 200 ppm [2] | pest or weed control at 200 ppm [3] | inhibition at 20 ppm [4]

CCCC(=O)C(=O)N(CC)Cc1ccc(-c2noc(C(F)(F)F)n2)cc1 [Compound 1.19, N-ethyl-2-oxo-N-[[4-[5-(trifluoromethyl)-1,2,4-oxadiazol-3-yl]phenyl]methyl]pentanamide]
≥ 80%: pest or weed control at 200 ppm [1] | pest or weed control at 200 ppm [2] | pest or weed control at 200 ppm [3] | inhibition at 20 ppm [4]

CC(C)CC(=O)C(=O)NCc1ccc(-c2noc(C(F)(F)F)n2)c(F)c1 [Compound 1.43, N-[[3-fluoro-4-[5-(trifluoromethyl)-1,2,4-oxadiazol-3-yl]phenyl]methyl]-4-methyl-2-oxo-pentanamide]
≥ 80%: pest or weed control at 200 ppm [1] | pest or weed control at 200 ppm [2] | pest or weed control at 200 ppm [3] | inhibition at 20 ppm [4]

CC(C)N(Cc1ccc(-c2noc(C(F)(F)F)n2)cc1)C(=O)C(N)=O [Compound 4.89, N′-isopropyl-N′-[[4-[5-(trifluoromethyl)-1,2,4-oxadiazol-3-yl]phenyl]methyl] oxamide]
≥ 80%: pest or weed control at 200 ppm [1] | pest or weed control at 200 ppm [2] | pest or weed control at 200 ppm [3] | inhibition at 20 ppm [4]

CCC(=O)C(=O)N(CCO)Cc1ccc(-c2noc(C(F)(F)F)n2)cc1 [Compound 1.33, N-(2-hydroxyethyl)-2-oxo-N-[[4-[5-(trifluoromethyl)-1,2,4-oxadiazol-3-yl]phenyl]methyl]butanamide]
≥ 80%: pest or weed control at 200 ppm [1] | pest or weed control at 200 ppm [2] | pest or weed control at 200 ppm [3] | inhibition at 20 ppm [4]
